{
  "source": "patent US11077145B2",
  "about": "“Method for mass producing proteins in mesenchymal stem cells” (STEMMEDICARE CO., LTD., priority 2015, dated 2021)",
  "key": {"C57BL/6 mice [1]": {"system": "C57BL/6 mice", "experiment": "Anagen hair model, hair growth score and number of hair follicles", "type": "in vivo, mouse", "parameters": "hair growth score, Average: scale not given here", "method": "A comparative test was performed to investigate the effect of hair growth promotion of the mesenchymal stem cell conditioned medium of the present invention using C57BL/6 mice. After induction of the hair follicles of the test animal from the telogen (resting phase) to the […] (growing phase) and depilatione, in order to compare the growth promoting effect of the test substance containing 3% of the mesenchymal stem cell conditioned medium of the present invention, G1 (distilled water control), G2 (placebo control), G3 (test substance) and G4 (positive control-minoxidil 5%) were transdermally administered repeatedly for 14 days respectively, and the hair growth promoting effects were compared with the test substance."}, "C57BL/6 mice [2]": {"system": "C57BL/6 mice", "experiment": "Hair growth suppression model (dexamethasone), hair growth score and number of hair follicles", "type": "in vivo, mouse", "parameters": "hair growth score, Average: scale not given here", "method": "A comparative test was performed to examine the hair growth effect of the mesenchymal stem cell conditioned medium of the present invention using C57BL/6 mice. After depilating the test animals, the depilatory was treated to induce them from the telogen (resting phase) to the anagen (growing phase), and then to suppress the growth of hair follicles, 0.1% of dexamethanone was transdermally administered for 5 days from 8 days after depilation repeatedly. Next, in order to compare the growth promoting effect of the test substance containing 3% of the mesenchymal stem cell conditioned medium of the present invention, the growth promoting effects were compared with the test substance by transdermally administered repeatedly of G1 (distilled water control), G2 (placebo control), G3 (test substance) and G4 (positive control-minoxidil 5%) for 8 days."}, "[3]": {"settings": "individual animal average of 3 areas"}, "[4]": {"settings": "individual animal, female, 13th day"}, "[5]": {"settings": "individual animal, histopathological examination"}, "[6]": {"settings": "individual animal, female, 8th day of administration"}},
  "note": "Values joined by “and” are separate entries in the source; they are usually repeats but may differ in a detail not shown here. Identical values can stand only once. Marks after values point to notes of the source that are not given here.",
  "data": [
    {"smiles": "Nc1cc(N2CCCCC2)nc(N)[n+]1[O-]", "note": "[G4, Minoxidil]", "values": [
      {"measurement": "hair growth score, Average", "setting": "C57BL/6 mice [1]; 15th day, female C57BL/6 mice, average of the four scores per animal", "value": "4 (4×) and 3.75 (3×) and 3.5 (3×)"},
      {"measurement": "hair growth score, Total Average", "setting": "C57BL/6 mice [1]; 15th day, female C57BL/6 mice, group average, transdermal administration for 14 days", "value": "3.78**"},
      {"measurement": "hair growth score, Score 1st", "setting": "C57BL/6 mice [1]; 15th day, female C57BL/6 mice, individual animal, 1st score", "value": "4 (80~100% (4)) (9×) and 3 (60~79% (3))"},
      {"measurement": "hair growth score, Score 2nd", "setting": "C57BL/6 mice [1]; 15th day, female C57BL/6 mice, individual animal, 2nd score", "value": "4 (80~100% (4)) (5×) and 3 (60~79% (3)) (5×)"},
      {"measurement": "hair growth score, Score 3rd", "setting": "C57BL/6 mice [1]; 15th day, female C57BL/6 mice, individual animal, 3rd score", "value": "4 (80~100% (4))"},
      {"measurement": "hair growth score, Score 4th", "setting": "C57BL/6 mice [1]; 15th day, female C57BL/6 mice, individual animal, 4th score", "value": "4 (80~100% (4)) (7×) and 3 (60~79% (3)) (3×)"},
      {"measurement": "hair growth score, Total Average", "setting": "C57BL/6 mice [1]; group average, 13th day", "value": 3.27, "unit": "point"},
      {"measurement": "hair growth score, Total Average", "setting": "C57BL/6 mice [1]; group average, 15th day", "value": 3.78, "unit": "point"},
      {"measurement": "number of hair follicles, Total Average", "setting": "C57BL/6 mice [1]; group average, transdermal for 14 days", "value": 104.70},
      {"measurement": "number of hair follicles, Average", "setting": "C57BL/6 mice [1]; [3]", "value": "191.33 and 107.67 and 69.00 and 149.67 and 54.67 and 82.67 and 72.33 and 130.33 and 138.67 and 50.67"},
      {"measurement": "hair growth score, Average", "setting": "C57BL/6 mice [1]; individual animal average, 13th day", "value": "3.67 (2×) and 4.00 (2×) and 3.33 (2×) and 3.00 and 2.33 and 2.67 (2×)"},
      {"measurement": "hair growth score, Score 1st", "setting": "C57BL/6 mice [1]; [4]", "value": "3 (60~79% (3)) (4×) and 4 (80~100% (4)) (2×) and 2 (40~59% (2)) (4×)"},
      {"measurement": "hair growth score, Score 2nd", "setting": "C57BL/6 mice [1]; [4]", "value": "3 (60~79% (3)) (5×) and 4 (80~100% (4)) (2×) and 1 (20~39% (1)) (2×) and 2 (40~59% (2))"},
      {"measurement": "hair growth score, Score 3rd", "setting": "C57BL/6 mice [1]; [4]", "value": "4 (80~100% (4)) (6×) and 3 (60~79% (3)) (4×)"},
      {"measurement": "hair growth score, Score 4th", "setting": "C57BL/6 mice [1]; [4]", "value": "4 (80~100% (4)) (5×) and 3 (60~79% (3)) (5×)"},
      {"measurement": "number of hair follicles, Area 1", "setting": "C57BL/6 mice [1]; [5]", "value": "232 and 48 and 92 and 135 and 45 and 90 and 71 and 149 and 121 and 53"},
      {"measurement": "number of hair follicles, Area 2", "setting": "C57BL/6 mice [1]; [5]", "value": "209 and 135 and 55 and 155 and 50 and 94 and 79 and 126 and 164 and 41"},
      {"measurement": "number of hair follicles, Area 3", "setting": "C57BL/6 mice [1]; [5]", "value": "133 and 140 and 60 and 159 and 69 and 64 and 67 and 116 and 131 and 58"},
      {"measurement": "number of hair follicles, Total Average", "setting": "C57BL/6 mice [2]; group average, transdermal for 8 days", "value": 66.37},
      {"measurement": "hair growth score, Total Average", "setting": "C57BL/6 mice [2]; group average, transdermal for 8 days, 8th day", "value": 2.68, "unit": "points"},
      {"measurement": "number of hair follicles, Average", "setting": "C57BL/6 mice [2]; [3]", "value": "87.67 and 92.33 and 71.00 and 36.33 and 108.33 and 61.33 and 45.33 and 29.67 and 36.00 and 95.67"},
      {"measurement": "hair growth score, Average", "setting": "C57BL/6 mice [2]; individual animal average, 8th day of administration", "value": "3.00 (3×) and 1.75 (2×) and 2.25 and 2.75 (2×) and 2.50 and 4.00"},
      {"measurement": "hair growth score, Score 1st", "setting": "C57BL/6 mice [2]; [6]", "value": "2 (40~59% (2)) (6×) and 1 (20~39% (1)) (2×) and 3 (60~79% (3)) and 4 (80~100% (4))"},
      {"measurement": "hair growth score, Score 2nd", "setting": "C57BL/6 mice [2]; [6]", "value": "2 (40~59% (2)) (7×) and 1 (20~39% (1)) (2×) and 4 (80~100% (4))"},
      {"measurement": "hair growth score, Score 3rd", "setting": "C57BL/6 mice [2]; [6]", "value": "4 (80~100% (4)) (4×) and 2 (40~59% (2)) (3×) and 3 (60~79% (3)) (2×) and 1 (20~39% (1))"},
      {"measurement": "hair growth score, Score 4th", "setting": "C57BL/6 mice [2]; [6]", "value": "4 (80~100% (4)) (7×) and 3 (60~79% (3)) (3×)"},
      {"measurement": "number of hair follicles, Area 1", "setting": "C57BL/6 mice [2]; [5]", "value": "70 and 97 and 66 and 53 and 114 and 65 and 78 and 46 and 37 and 95"},
      {"measurement": "number of hair follicles, Area 2", "setting": "C57BL/6 mice [2]; [5]", "value": "96 and 87 (2×) and 65 and 37 (2×) and 108 and 52 and 19 and 48"},
      {"measurement": "number of hair follicles, Area 3", "setting": "C57BL/6 mice [2]; [5]", "value": "97 and 93 and 82 and 19 and 103 and 67 and 21 and 24 and 23 and 105"}
    ]}
  ]
}
